The values that follow come from patent US20240174690A1, “ANNULATED 2-AMINO-3-CYANO THIOPHENES AND DERIVATIVES FOR THE TREATMENT OF CANCER” (BOEHRINGER INGELHEIM INTERNATIONAL GMBH, priority 2021, published 2024).

Series [1] relates to KRAS G12D-dependent Ba/F3 cells. The experiment in a line: Ba/F3 proliferation assay, KRAS G12D. In kind it is cell-based. The settings on record: Mus musculus, BaF3, 72 h, AlamarBlue. As to the method: (§1) Plasmids containing KRASG12 mutants (i.e. […], G12C, G12V) are obtained from GeneScript. To generate KRASG12-dependent Ba/F3 models, Ba/F3 cells are transduced with retroviruses containing vectors that harbor KRASG12 isoforms. Platinum-E cells (Cell Biolabs) are used for retrovirus packaging. Retrovirus is added to Ba/F3 cells. To ensure infection, 4 μg/mL polybrene is added and cells are spinfected. […] Cells with an infection efficiency of 10% to 20% are further cultivated and puromycin selection with 1 μg/mL is initiated. As a control, parental Ba/F3 cells are used to show selection status. Selection is considered successful when parental Ba/F3 cells cultures died. To evaluate the transforming potential of KRASG12 mutations, the growth medium is no longer supplemented with IL-3. Ba/F3 cells harboring the empty vector are used as a control. Approximately ten days before conducting the experiments, puromycin is left out.
(§2) Compounds are added using an Access Labcyte Workstation with a Labcyte Echo 550 or 555 accoustic dispenser. All treatments are performed in technical duplicates. […] AlamarBlue™ (ThermoFisher), a viability stain, is added and fluorescence measured in the PerkinElmer Envision HTS Multilabel Reader. The raw data are imported into and analyzed with the Boehringer Ingelheim proprietary software MegaLab (curve fitting based on the program PRISM, GraphPad Inc.).
(In general: Resazurin is reduced to fluorescent resorufin, in cell work by metabolically active cells.)

The subject of series [2] is KRAS G12C-dependent Ba/F3 cells. Put plainly: Ba/F3 proliferation assay, KRAS G12C. It counts as cell-based. To be noted: Mus musculus, BaF3, 72 h, AlamarBlue. On the procedure: as §1, §2
The subject of series [3] is KRAS G12V-dependent Ba/F3 cells. The experiment in a line: Ba/F3 proliferation assay, KRAS G12V.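 Also: proliferation IC50 in KRAS G12V-dependent Ba/F3 cells read by AlamarBlue.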 To be noted: Mus musculus, BaF3, 72 h, AlamarBlue. It counts as cell-based. As to the method:
as §1, §2

The subject of series [4] is NCI-H358 cells. The experiment in a line: NCI-H358 CTG proliferation assay (120 h) (NSCLC, G12C). The settings on record: Homo sapiens, assay 2, CTG, read-out: H358 (assay 2) IC50. It counts as cell-based, human. As to the method: NCI-H358 CTG Proliferation Assay (120 h) (NSCLC, G12C)
NCI-H358 cells (ATCC No. CRL-5807) are dispensed into white bottom opaque 96 well plates (Perkin Elmer cat no. 5680) at a density of 2000 cells per well in 100 μL RPMI-1640 ATCC-Formulation (Gibco #A10491)+10% FCS (fetal calf serum) (assay 1) or into black 384-well plates, flat and clear bottom (Greiner, PNr. 781091) at a density of 200 cells per well in 60 μl RPMI-1640 ATCC-Formulation (Gibco #A10491)+10% FCS (fetal calf serum) (assay 2). […] Compounds (10 mM stock in DMSO) are added at logarithmic dose series using the HP Digital Dispenser D300 (Tecan) (assay 1) or the ECHO acoustic liquid handler system (Beckman Coulter) (assay 2), normalizing for added DMSO and including DMSO controls. For the TO time point measurement, untreated cells are analyzed at the time of compound addition. Plates are incubated for 120 h, and cell viability is measured using CellTiter-Glo luminescent cell viability reagent (Promega product code G7570). Viability (stated as percent of control) is defined as relative luminescence units RLU of each well divided by the RLU of cells in DMSO controls. IC50 values are determined from viability measurements by non-linear regression using a four parameter model.

A short description of series [5]: Metabolic (microsomal) stability assay, human liver microsomes (HLM). The settings on record: predicted clearance as percent of liver blood flow, 1 μM. In kind it is in vitro ADME. On the procedure:
The metabolic degradation of the test compound is assayed at 37° C. with pooled liver microsomes (mouse (MLM), rat (RLM) or human (HLM)). The final incubation volume of 48 μL pertime point contains TRIS buffer (pH 7.5; 0.1 M), magnesium chloride (6.5 mM), microsomal protein (0.5 mg/mL for mouse/rat, 1 mg/mL for human specimens) and the test compound at a final concentration of 1 μM. Following a short preincubation period at 37° C., the reactions are initiated by addition of 12 μL beta-nicotinamide adenine dinucleotide phosphate, reduced form (NADPH, 10 mM) and terminated by transferring an aliquot into solvent after different time points (0, 5, 15, 30, 60 min). Additionally, the NADPH-independent degradation is monitored in incubations without NADPH, terminated at the last time point by addition of acetonitrile. The quenched incubations are pelleted by centrifugation (4,000 rpm, 15 min). An aliquot of the supernatant is assayed by LC-MS/MS to quantify the concentration of parent compound in the individual samples.
In vitro intrinsic clearance (CLint, in vitro) is calculated from the time course of the disappearance of the test drug during the microsomal incubation. Each plot is fitted to the first-order elimination rate constant as C(t)═C0*exp(−ke*t), where C(t) and C0 are the concentration of unchanged test drug at incubation time t and that at preincubation and ke is the disappearance rate constant of the unchanged drug. Subsequently, CLint in vitro (μL min^−1·amount protein) values are converted to predicted CLint,in vivo (mL min^−1 kg^−1) from incubation parameters according to the equation CLint, in vivo=CLint, in vitro×(incubation volume (ml)/amount protein (mg))×(amount protein (mg)/g liver tissue)×(liver weight/body wt.).
For better across species comparison the predicted clearance is expressed as percent of the liver blood flow [% QH] (mL min^−1·kg^−1) in the individual species. In general, high stability (corresponding to low % QH) of the compounds across species is desired.

Series [6] in a line: Plasma protein binding assay (PPB), equilibrium dialysis, 10% FCS in PBS. In kind it is in vitro ADME. The settings on record: bovine, read-out: PPB 10% FCS (% fu). On the procedure: Binding of test compounds to plasma was determined using equilibrium dialysis (ED) and quantitative mass spectrometry interfaced with liquid chromatography (LC-MS). In brief, ED was performed with dialysis devices consisting of two chambers separated by a semipermeable membrane with a molecular weight cut-off of 5-10 kg/mol. One chamber was filled with 10% FCS in PBS containing 1-10 μmol/L test compound and the other chamber was filled with phosphate-buffer saline (PBS) with or without dextran. The dialysis chamber was incubated for 3-5 hours at 37° C. After incubation, protein was precipitated from aliquots of each chamber and the concentration of test compound in the supernatant of the plasma-containing compartment (Cserum) and of the buffer-containing compartment (Cbuffer) was determined by LC-MS. The fraction of unbound test compound (not bound to plasma) (fu) was calculated according to the following equation: […]
(In equilibrium dialysis only unbound substance equilibrates across the membrane.)

Series [7] has as its target KRAS (G12D)::SOS1 (Homo sapiens (Human), UniProt P01116, G12D). The experiment in a line: KRAS::SOS1 AlphaScreen binding assay, KRAS G12D. From the text: (§3) This assay can be used to examine the potency with which compounds according to the invention binding to (mutated) KRAS inhibit the protein-protein interaction between SOS1 and (mutated) KRAS e.g., KRAS WT, KRAS G12C, KRAS G12D, KRAS G12V, KRAS G13D. […] Low IC50 values in this assay setting are indicative of strong inhibition of protein-protein interaction between SOS1 and KRAS:
(§4) These assays measure the inhibitory effect of compounds on KRAS mutant protein-protein interactions using the Alpha Screen technology by Perkin Elmer.
(§5) The following (mutant) enzyme forms of KRAS and interacting proteins are used in these assays at the given concentrations: • KRAS (G12D) 1-169, N-terminal 6His-tag, C-terminal avi-tag (Xtal BioStructures, Inc.); final assay concentration 10 nM and SOS1 564-1049, N-terminal 229 GST-tag, TEV cleavage site (Viva Biotech Ltd); final assay concentration 5 nM; • KRAS (G12C) 1-169, N-terminal 6His-tag for purification, cleaved off, C-terminal avi-tag, biotinylated, mutations: C51S, C80L, C118S (in house); final assay concentration 7.5 nM and SOS1 564-1049, N-terminal 229 GST-tag, TEV cleavage site (Viva Biotech Ltd); final assay concentration 5 nM; • KRAS (G12V) 1-169, N-terminal 6His-tag for purification, cleaved off, C-terminal avi-tag, biotinylated, TEV cleavage site, mutation: C118S, GDP loaded (in house); final assay concentration 10 nM and SOS1 564-1049, N-terminal 229 GST-tag, TEV cleavage site (Viva Biotech Ltd); final assay concentration 10 nM; • KRAS (G13D) 1-169, N-terminal 6His-tag for purification, cleaved off, C-terminal avi-tag, biotinylated, TEV cleavage site, mutation: C118S, GDP loaded (in house); final assay concentration 10 nM and SOS1 564-1049, N-terminal 229 GST-tag, TEV cleavage site (Viva Biotech Ltd); final assay concentration 10 nM; • KRAS (WT) 1-169, N-terminal 6His-tag for purification, cleaved off, C-terminal avi-tag, biotinylated, TEV cleavage site, mutation: C118S, GDP loaded (in house); final assay concentration 10 nM and SOS1 564-1049, N-terminal 229 GST-tag, TEV cleavage site (Viva Biotech Ltd); final assay concentration 10 nM.
(§6) Test compounds dissolved in DMSO are dispensed onto assay plates (Proxiplate 384 PLUS, white, PerkinElmer; 6008289) using an Access Labcyte Workstation with the Labcyte Echo 55×. For the chosen highest assay concentration of 100 μM, 150 nL of compound solution are transferred from a 10 mM DMSO compound stock solution. A series of eleven fivefold dilutions per compound are transferred to the assay plate, compound dilutions are tested in duplicates. DMSO are added as backfill to a total volume of 150 nL.
(§7) The assays run on a fully automated robotic system in a darkened room below 100 Lux. To 150 nl of compound dilution 10 μl of a mix including KRAS mutant protein, SOS1 (final assay concentrations see above) and GDP nucleotide (Sigma G7127; final assay concentration 10 μM) in assay buffer (1×PBS, 0.1% BSA, 0.05% Tween 20) are added into columns 1-24.
(§8) After 30 minutes incubation time 5 μl of Alpha Screen bead mix in assay buffer are added into columns 1-23. Bead mix consists of AlphaLISA Glutathione Acceptor Beads (PerkinElmer, Cat No AL109) and AlphaScreen Streptavidin Donor Beads (PerkinElmer Cat No 6760002) in assay buffer at a final assay concentration of 10 μg/ml each.
(§9) Plates are kept at room temperature in a darkened incubator. After an additional 60 minutes incubation time the signal is measured in a PerkinElmer Envision HTS Multilabel Reader using the AlphaScreen specs from PerkinElmer.
(§10) Each plate contains up to 16 wells of a negative control depending on the dilution procedure (platewise or serial) (DMSO instead of test compound; with KRAS mutant::SOS1 GDP mix and bead mix; column 23) and 16 wells of a positive control (DMSO instead of test compound; with KRAS mutant::SOS1 GDP mix w/o bead mix; column 24).
(§11) As internal control known inhibitors of KRAS mutant::SOS1 interaction can be measured on each compound plate. […]
In general terms: Bead proximity is the source of the signal in Alpha formats.

Series [8] concerns the target KRAS (G12C)::SOS1 (Homo sapiens (Human), UniProt P01116, C118S/C51S/C80L/G12C). The experiment in a line: KRAS::SOS1 AlphaScreen binding assay, KRAS G12C.
Source text: as §3, §4, §5, §6, §7, §8, §9, §10, §11

Series [9] can be described thus: Solubility measurement (DMSO solution method), McIlvaine buffer pH 4.5 or 6.8. It counts as physicochemical. To be noted: aqueous buffer, kinetic from dmso stock, DMSO stock diluted to 250 μM, 24 h shaking at ambient temperature. On the procedure:
The DMSO solution is diluted with an aqueous medium (Mcllvaine buffer with pH=4.5 or 6.8) to a final concentration of 250 μM. After 24 h of shaking at ambient temperature a potentially formed precipitate is removed by filtration. The concentration of the test compound in the filtrate is determined by LC-UV methods by calibrating the signal to the signal of a reference solution with complete dissolution of the test compound in acetonitrile/water (1:1) with known concentration.

Values after ≈ are worked out from the molar mass of the structure shown. Read-outs that look alike come from different tables or passages of the source.

Sequence of KRAS (G12D)::SOS1 (P01116 other isoform, or with tags, fused parts or gaps G12D): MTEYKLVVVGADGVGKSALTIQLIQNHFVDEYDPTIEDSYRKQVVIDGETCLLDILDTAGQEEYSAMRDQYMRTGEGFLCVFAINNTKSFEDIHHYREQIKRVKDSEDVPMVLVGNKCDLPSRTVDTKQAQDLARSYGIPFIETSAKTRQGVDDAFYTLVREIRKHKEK
Sequence of KRAS (G12C)::SOS1 (P01116 other isoform, or with tags, fused parts or gaps G12C/C51S/C80L/C118S): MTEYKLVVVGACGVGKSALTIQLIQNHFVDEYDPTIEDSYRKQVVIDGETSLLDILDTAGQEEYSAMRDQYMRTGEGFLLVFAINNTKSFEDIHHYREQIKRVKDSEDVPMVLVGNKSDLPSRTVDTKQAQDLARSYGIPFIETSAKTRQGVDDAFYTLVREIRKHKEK

Consider `C[C@H](Oc1cc(N2CCN3CCC[C@]3(C)C2)nc(-c2noc3c2CCC[C@@]32CCCc3sc(N)c(C#N)c32)n1)[C@@H]1CCCN1C` [II-52], for which the IC50 in series [1] is 72 nM; in series [2] it was 403 nM; in series [3] it was 401 nM; in [4], 1720 nM. The “HLM QH” value in series [5] is listed as less than 24%. In addition, the fraction unbound in series [6] was determined as 0.48.

Take `C[C@H]1CN(C)CCCN1c1nc(-c2noc3c2CCC[C@@]32CCCc3sc(N)c(C#N)c32)cc(N2CCN(C)C3(CC3)C2)n1` [II-172]: the values for the IC50 in series [7], in [8] and in series [2] were 36 nM, 888 nM and 830 nM, respectively. Moreover, the “HLM QH” value in series [5] is 51%.

`Cc1cc(-c2onc3c2CCC[C@@]32CCCc3sc(N)c(C#N)c32)nc(N2CCCNC[C@@H]2C)n1` [I-35]: the figures for the IC50 in series [7], in series [8] and in [2] were 21 nM, 32 nM and 289 nM, respectively. Besides, in [5], the “HLM QH” value was 32%. The solubility at 24 h in series [9] (McIlvaine buffer pH 4.5, read-out: solubility pH 4.5) was 3 µg/mL (≈ 6.13 µM); in series [9] (McIlvaine buffer pH 6.8, read-out: solubility pH 6.8) it was less than 1 µg/mL.

For `C[C@H](Oc1cc(-n2ccnn2)nc(-c2noc3c2CCC[C@@]32CCCc3sc(N)c(C#N)c32)n1)[C@@H]1CCCN1C` [II-108], the IC50 in series [1] turned out to be 54 nM; in series [2], 15 nM; in series [3] it was 8 nM; in series [4], 134 nM. Moreover, the “HLM QH” value in series [5] is on record as 59%. Also, the fraction unbound in series [6] was 0.42.

Broadly, the IC50 is the concentration that gives 50% inhibition. Usually solubility stands for how much of the substance goes into solution per volume.
